Earlier results in patent publication US20030162237A1, “Methods of monitoring enzyme activity” (priority 2000, published 2003).
Read-outs that look alike come from different tables or passages of the source.

Key:
[1] = tested on: human tumor cell lines
[2] = tested on: stem-loop IIB RNA; details: phosphorylated by PKC or HMK, versus unphosphorylated H6Rev

Compound | expression of malignancy suppressor genes [1] | binds more tightly to stem-loop IIB RNA than unphosphorylated H6Rev [2] | binds more tightly to stem-loop IIB RNA than unphosphorylated H6Rev ([2]; listed as H6Rev) [fold]
Nc1ncn([C@H]2C[C@H](O)[C@@H](CO)O2)c(=O)n1 [5-aza-2′-deoxycytidine] | reactivate the expression of many of the malignancy suppressor genes | – | –
P-H6Rev: HIV type-1 Rev protein H6Rev (accession number P04325) phosphorylated by PKC or HMK | – | ligand 7-fold more tightly than H6Rev. | 7
